The text below walks through data of US12065443B2, “Compounds and pharmaceutical compositions thereof for the treatment of diseases” (priority 2017, dated 2024).

Read-outs that look alike come from different tables or passages of the source.

The target of test [1] is T1, SIK3 (Homo sapiens, UniProt Q9Y2K2).
T1 construct: purchased SignalChem S12-11G-100
Nature of the test: biochemical. As to conditions: ADP-Glo SIK kinase assay. In a few lines: (§1)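 Wells with 1% DMSO or 10 μM staurosporine (final) define the control window. The kinase reaction with substrate and ATP runs 120 min at RT, followed by ADP-Glo detection: ATP depletion (40 min) and ADP-derived luminescence (30 min).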
Background: In ADP-Glo the light output rises with the ADP produced.

For test [2], the target named is T2, SIK1 (Homo sapiens, UniProt P57059).
T2 construct: purchased Carna Biosciences 02-131
T2 sequence (P57059 whole entry): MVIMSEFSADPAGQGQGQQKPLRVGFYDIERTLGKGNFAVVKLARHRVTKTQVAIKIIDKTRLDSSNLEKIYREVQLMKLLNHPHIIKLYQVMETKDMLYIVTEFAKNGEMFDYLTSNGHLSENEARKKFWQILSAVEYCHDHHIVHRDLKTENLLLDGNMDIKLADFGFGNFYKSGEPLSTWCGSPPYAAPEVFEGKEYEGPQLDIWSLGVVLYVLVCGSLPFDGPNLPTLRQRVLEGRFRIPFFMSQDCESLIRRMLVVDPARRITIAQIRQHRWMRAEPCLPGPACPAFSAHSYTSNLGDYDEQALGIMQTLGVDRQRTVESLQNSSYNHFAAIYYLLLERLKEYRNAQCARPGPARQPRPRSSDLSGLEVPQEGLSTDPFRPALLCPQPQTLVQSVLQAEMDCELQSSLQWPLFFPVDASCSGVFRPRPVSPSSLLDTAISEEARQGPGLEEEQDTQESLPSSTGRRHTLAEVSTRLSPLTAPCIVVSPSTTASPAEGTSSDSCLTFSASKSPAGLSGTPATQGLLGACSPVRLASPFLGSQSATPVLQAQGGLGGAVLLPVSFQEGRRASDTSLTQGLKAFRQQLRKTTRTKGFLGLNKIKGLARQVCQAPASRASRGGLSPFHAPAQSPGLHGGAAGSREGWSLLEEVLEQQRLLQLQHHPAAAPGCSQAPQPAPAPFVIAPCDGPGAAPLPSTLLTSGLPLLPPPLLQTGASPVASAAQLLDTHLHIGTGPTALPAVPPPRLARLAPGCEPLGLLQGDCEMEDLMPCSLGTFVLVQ
Nature of the test: biochemical. As to conditions: ADP-Glo SIK kinase assay. A digest of the protocol:
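Enzyme–substrate mix was started with ATP and incubated 120 min at RT. ADP formed was quantified by ADP-Glo: 40 min ATP depletion, then 30 min detection reagent converting ADP to ATP for luciferase luminescence, which rises with kinase activity. Controls: 1% DMSO and 10 μM staurosporine (final).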

Test [3] addresses T3, SIK2 (Homo sapiens, UniProt Q9H0K1).
T3 construct: purchased ThermoFisher Scientific PV4792
Nature of the test: biochemical. As to conditions: ADP-Glo SIK kinase assay. In a few lines:
as §1

Test [4] concerns the target T1, SIK3. Put plainly: biochemical. In a few lines:
(§2)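 Radiometric assay: SIK1, SIK2 or SIK3 phosphorylates AMARA peptide using unlabelled plus [^33P]-γ-ATP, reaction started by ATP addition. Stopped with 150 mM phosphoric acid, filter-harvested and washed; incorporated ^33P counted by scintillation. Controls: 1% DMSO and 10 μM staurosporine final.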

For test [5], the target named is T2, SIK1. Put plainly: biochemical. As to conditions: 33P radioactive SIK kinase assay, AMARA peptide, 10 μM ATP; read-out: SIK1 IC50. In a few lines: as §2
The target in test [6] is T3, SIK2. Put plainly: biochemical. As to conditions: 33P radioactive SIK kinase assay, AMARA peptide, 10 μM ATP. In a few lines: as §2
In test [7] the test system is LPS-induced TNFα secretion in monocyte-derived macrophages (MdM). Nature of the test: MdM assay: LPS-triggered TNFα (ELISA). It is filed as cell-based, human. As to conditions: Homo sapiens, Macrophage, LPS-triggered TNFα inhibition. In a few lines:
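TNFα ELISA read on supernatants harvested 20 h after LPS (final 200 ng/mL) stimulation. Cells were day-10 macrophages derived from human blood CD14+ monocytes, exposed to 3-fold compound dilutions for 1 h at 37 °C beforehand, with DMSO held at 0.2%.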
(In an ELISA, binding on a coated surface is turned into a signal by an enzyme label.)

The subject of test [8] is LPS driven TNFα secretion in Peripheral Blood Mononuclear Cells (PBMC). Put plainly: cells. It is filed as cell-based. As to conditions: Homo sapiens, LPS 1 ng/mL, supernatant after 18-20 h, ELISA.
Procedure: This assay measures the inhibition of LPS driven TNFα secretion by a test compound in Peripheral Blood Mononuclear Cells (PBMC), which in turn correlates with SIK inhibition.
PBMCs are isolated from human blood samples (buffy coats). The buffy coat is aseptically transferred into a 50 mL Falcon™ tube, and diluted 1/2 in Phosphate Buffered Saline (PBS). […] The tubes are centrifuged for 35 min at 400× g in temperature controlled centrifuge, without brake, at 25° C. PBMCs are aspirated from the white interface layer between sample and Lymphoprep. PBMCs are washed five times in PBS. […] The PBMCs are finally seeded at 400,000 PBMC/160 μL/96-well.
A compound dilution plate is made in 100% DMSO by 3-fold dilution of 10 mM stock solution of test compound. An intermediate dilution plate (10× final concentration) is made by diluting the compound dilution plate 50-fold in RPMI medium.
20 μL of the 10× final concentration compound is added to the cells and incubated for 1 hour at 37° C. before addition of trigger. No trigger conditions/trigger conditions are spiked with equal final DMSO concentrations of 0.2% DMSO. 20 μL of 10×LPS (final concentration 1 ng/mL) solution are added to all wells except for the ‘no trigger wells’ where 20 μL medium is added. Supernatant is collected after 18-20 h for IL-10 and TNFα determination using ELISA.
The plate is then washed once with PBST (PBS+0.05% Tween20) and once with PBS followed by the addition of 100 μL of blocking buffer (1% Bovine Serum Albumin (BSA)-5% Sucrose) and plates are sealed and incubated for at least 4 h at RT. After washing the plate once with PBST and once with PBS, 40 μL of standard or sample are added (TNFα standard curve is prepared using a 1/2 serial dilution starting from 16000 pg/mL; dilutions are made in dilution buffer (PBS+1% BSA)). Plates are washed twice with PBST, and once with PBS, after which 35 μL of the detection antibody is added (final concentration 0.25 μg/mL diluted in dilution buffer) and plates are incubated for at least 2 h at RT. Plates are washed twice with PBST, and once with PBS, where after 35 μL of Strep-HRP conjugate (0.5 μg/mL final concentration diluted in dilution buffer) is added. Plates are incubated in the dark, at RT for at least 45 min but no longer than 1 hour. Plates are washed twice with PBST, and once with PBS. Thereafter, 50 μL of luminol substrate is added to each well (prepared according to manufacturer's instructions), and incubated for 5 min at RT protected from light.
To measure the inhibition of LPS induced TNFα, percentage inhibition (PIN) values are calculated for all concentrations tested, compared to controls.
PIN values are plotted in concentration-response and EC50 values are derived using GraphPad Prism Software, applying 4-parameter nonlinear regression (sigmoidal) curve fitting.
The test system of test [9] is LPS triggered IL-10 secretion in monocyte-derived macrophages (MdM). Nature of the test: MdM assay: LPS-triggered IL-10 (ELISA). The format is cell-based, human. As to conditions: maximal fold change vs LPS only, median across assays. A digest of the protocol: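 Readout is IL-10FCmax, the median across at least two runs of the highest fold change over LPS-only, from ELISA absorbance at 450 nm of 2 h supernatants. Macrophages came from day-10 cultures of human CD14+ monocytes, were given compound for 1 h at 37° C in 0.2% DMSO, then 200 ng/mL LPS.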

One may read the IC50 as the concentration that inhibits the measured activity by half. As usually defined, the EC50 is the concentration that produces a half-maximal response. Low readings indicate an effect from little substance, high ones a need for much substance.

T1 sequence (Q9Y2K2 whole entry): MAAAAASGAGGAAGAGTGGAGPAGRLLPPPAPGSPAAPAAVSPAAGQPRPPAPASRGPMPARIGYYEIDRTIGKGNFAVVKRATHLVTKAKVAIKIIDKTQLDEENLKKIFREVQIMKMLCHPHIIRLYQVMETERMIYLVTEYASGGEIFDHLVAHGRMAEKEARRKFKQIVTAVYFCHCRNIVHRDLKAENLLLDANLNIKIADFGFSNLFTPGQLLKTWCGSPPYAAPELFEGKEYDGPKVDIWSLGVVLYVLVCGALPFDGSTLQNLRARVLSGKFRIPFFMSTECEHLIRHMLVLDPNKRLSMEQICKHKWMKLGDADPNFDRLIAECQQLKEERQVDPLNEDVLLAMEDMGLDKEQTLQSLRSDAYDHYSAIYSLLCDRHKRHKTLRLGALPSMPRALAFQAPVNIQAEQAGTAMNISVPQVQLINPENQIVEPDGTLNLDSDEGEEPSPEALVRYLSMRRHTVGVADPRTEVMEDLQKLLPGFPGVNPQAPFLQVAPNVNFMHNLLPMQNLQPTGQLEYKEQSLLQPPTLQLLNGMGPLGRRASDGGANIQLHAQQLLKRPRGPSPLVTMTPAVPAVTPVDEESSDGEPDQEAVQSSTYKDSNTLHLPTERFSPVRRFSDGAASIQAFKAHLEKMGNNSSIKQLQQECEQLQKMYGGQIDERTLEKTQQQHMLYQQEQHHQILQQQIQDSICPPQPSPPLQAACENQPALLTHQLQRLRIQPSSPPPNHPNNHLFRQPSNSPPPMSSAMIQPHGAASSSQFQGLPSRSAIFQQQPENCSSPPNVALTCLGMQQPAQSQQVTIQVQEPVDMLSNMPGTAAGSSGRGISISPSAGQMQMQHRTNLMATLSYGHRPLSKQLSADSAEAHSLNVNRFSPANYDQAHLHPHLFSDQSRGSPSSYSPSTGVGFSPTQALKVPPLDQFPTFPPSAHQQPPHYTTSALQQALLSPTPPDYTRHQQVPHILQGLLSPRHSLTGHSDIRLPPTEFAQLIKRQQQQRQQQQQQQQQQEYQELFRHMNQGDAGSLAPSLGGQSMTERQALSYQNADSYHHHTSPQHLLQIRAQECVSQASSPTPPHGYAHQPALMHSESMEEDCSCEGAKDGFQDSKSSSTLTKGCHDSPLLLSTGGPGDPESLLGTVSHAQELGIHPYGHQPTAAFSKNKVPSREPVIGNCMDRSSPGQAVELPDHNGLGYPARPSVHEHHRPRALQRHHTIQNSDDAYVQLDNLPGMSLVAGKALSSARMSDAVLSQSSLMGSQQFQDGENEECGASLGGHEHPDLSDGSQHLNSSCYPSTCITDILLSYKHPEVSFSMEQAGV
T3 sequence (Q9H0K1 whole entry): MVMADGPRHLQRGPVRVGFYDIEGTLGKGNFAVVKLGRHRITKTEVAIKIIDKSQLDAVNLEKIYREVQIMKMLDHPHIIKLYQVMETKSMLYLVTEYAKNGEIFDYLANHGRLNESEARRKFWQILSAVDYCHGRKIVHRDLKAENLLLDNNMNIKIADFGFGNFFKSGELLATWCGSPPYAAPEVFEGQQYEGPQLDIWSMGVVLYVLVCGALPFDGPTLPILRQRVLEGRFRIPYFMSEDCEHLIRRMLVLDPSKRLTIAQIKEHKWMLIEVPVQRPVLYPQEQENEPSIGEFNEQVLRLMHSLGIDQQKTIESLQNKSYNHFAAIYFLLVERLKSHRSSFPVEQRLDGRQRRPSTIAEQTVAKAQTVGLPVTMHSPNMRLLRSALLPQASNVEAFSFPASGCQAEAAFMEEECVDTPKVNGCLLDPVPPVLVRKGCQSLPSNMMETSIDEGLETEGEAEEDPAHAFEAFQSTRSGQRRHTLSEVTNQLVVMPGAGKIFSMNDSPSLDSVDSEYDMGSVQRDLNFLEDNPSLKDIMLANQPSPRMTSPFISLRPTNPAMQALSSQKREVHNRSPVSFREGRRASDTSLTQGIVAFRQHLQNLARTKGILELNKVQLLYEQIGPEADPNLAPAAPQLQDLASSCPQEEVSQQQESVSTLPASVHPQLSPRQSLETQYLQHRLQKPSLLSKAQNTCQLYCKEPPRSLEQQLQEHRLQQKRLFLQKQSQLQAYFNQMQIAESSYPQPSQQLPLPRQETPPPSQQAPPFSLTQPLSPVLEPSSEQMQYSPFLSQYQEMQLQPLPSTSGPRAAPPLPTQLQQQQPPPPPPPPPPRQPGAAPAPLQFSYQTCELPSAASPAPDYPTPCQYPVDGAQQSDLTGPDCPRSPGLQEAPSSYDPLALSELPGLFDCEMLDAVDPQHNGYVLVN

Turning to `COc1cc(-c2cnc3cc(-c4cnn(C)c4)ccn23)cc(OC)c1C(=O)NCC(F)(F)F` [Cpd 88], the IC50 on SIK3 [1], on SIK1 [2], against SIK2 [3], against SIK3 [4], at SIK1 [5] and at SIK2 [6] was 0.01 to 10 nM throughout. Further, the EC50 in test [7] and in [8] was 0.1 to 100 nM in each case. Also, the “IL-10 FCmax median” value in test [9] was “++ (>1.5-4.5)”.

`COc1cc(-n2cnc3cc(-c4cnn(C5CN(C)C5)c4)ccc32)cc(OC)c1C(=O)NCC(F)(F)F` [Cpd 98, 2,6-dimethoxy-4-[5-[1-(1-methylazetidin-3-yl)pyrazol-4-yl]benzimidazol-1-yl]-N-(2,2,2-trifluoroethyl)benzamide]: the IC50 on SIK3 [1] lay in the range of 0.01 to 10 nM; against SIK1 [2] it was 0.01 to 10 nM; at SIK2 [3], 0.01 to 10 nM; at SIK3 [4] it was 0.01 to 10 nM; at SIK1 [5], 10 to 100 nM; on SIK2 [6] it was 0.01 to 10 nM. For the same molecule, the EC50 in test [7] and in test [8] was 0.1 to 100 nM in each case. For the same molecule, the “IL-10 FCmax median” value in [9] is given as “++ (>1.5-4.5)”.

As to `COc1cc(-c2cnc3cc(-c4cnn(C)c4)ccn23)cc(OC)c1C(=O)N1CC(F)(F)C1` [Cpd 173, (3,3-difluoroazetidin-1-yl)-[2,6-dimethoxy-4-[7-(1-methylpyrazol-4-yl)imidazo[1,2-a]pyridin-3-yl]phenyl]methanone], the IC50 at SIK3 [1] is 0.01 to 10 nM; on SIK1 [2], 0.01 to 10 nM; against SIK2 [3], 0.01 to 10 nM; on SIK3 [4] it was 0.01 to 10 nM; on SIK1 [5] it was 10 to 100 nM; at SIK2 [6] it was 0.01 to 10 nM. Further, the EC50 in [7] and in test [8] was 0.1 to 100 nM throughout. Further, the “IL-10 FCmax median” value in test [9] is recorded as “++ (>1.5-4.5)”.

As for `COc1cc(-c2cnc3cc(-c4cnn(C)c4)ccn23)cc(OC)c1C(=O)N[C@H](C)C(F)(F)F` [Cpd 174, 2,6-dimethoxy-4-[7-(1-methylpyrazol-4-yl)imidazo[1,2-a]pyridin-3-yl]-N-[(1R)-2,2,2-trifluoro-1-methyl-ethyl]benzamide], the IC50 at SIK3 [1], on SIK1 [2], at SIK2 [3], at SIK3 [4], at SIK1 [5] and on SIK2 [6] was 0.01 to 10 nM each time. Further, the EC50 in test [7] and in test [8] was 0.1 to 100 nM each time. Besides, the “IL-10 FCmax median” value in [9] is “++ (>1.5-4.5)”.

In the case of `COc1cc(-n2cnc3cc(-c4ccnc(N5CCN(C)CC5)c4)ccc32)cc(OC)c1C(=O)NCC(F)(F)F` [compound 120, 2,6-dimethoxy-4-[5-[2-(4-methylpiperazin-1-yl)-4-pyridyl]benzimidazol-1-yl]-N-(2,2,2-trifluoroethyl)benzamide], the IC50 on SIK3 [1] was 0.01 to 10 nM; against SIK1 [2] it was 10 to 100 nM; against SIK2 [3], 0.01 to 10 nM; against SIK3 [4] it was 0.01 to 10 nM; on SIK1 [5], 10 to 100 nM; at SIK2 [6], 10 to 100 nM. Moreover, the EC50 in test [7] fell in the range of 100 to 1000 nM; in test [8], 0.1 to 100 nM. In addition, the “IL-10 FCmax median” value in test [9] is reported as “++ (>1.5-4.5)”.

Consider `CCN1Cc2cc(-c3cnc4cc(-c5cnn(C)c5)ccn34)cc(OC)c2C1=O` [compound 176, 2-ethyl-7-methoxy-5-[7-(1-methylpyrazol-4-yl)imidazo[1,2-a]pyridin-3-yl]isoindolin-1-one], for which the IC50 on SIK3 [1] was 0.01 to 10 nM; against SIK1 [2], 10 to 100 nM; against SIK2 [3], 0.01 to 10 nM; against SIK3 [4] it was 10 to 100 nM; at SIK1 [5], 10 to 100 nM; at SIK2 [6], 10 to 100 nM. Moreover, the EC50 in test [7] lay in the range of 100 to 1000 nM; in test [8], 0.1 to 100 nM.

With `CCNC(=O)c1c(OC)cc(-n2cnc3cc(-c4cnn(C)c4)cnc32)cc1OC(F)F` [compound 177, 2-(difluoromethoxy)-N-ethyl-6-methoxy-4-[6-(1-methylpyrazol-4-yl)imidazo[4,5-b]pyridin-3-yl]benzamide], the IC50 against SIK3 [1] was in the range of 0.01 to 10 nM; against SIK1 [2], 10 to 100 nM; against SIK2 [3], 0.01 to 10 nM; on SIK3 [4], 10 to 100 nM; on SIK1 [5] it was 10 to 100 nM; on SIK2 [6] it was 10 to 100 nM. Besides, the EC50 in [7] is 100 to 1000 nM; in [8] it was 0.1 to 100 nM.

In the case of `COc1cc(-n2cnc3cc(-c4cnn(C)c4)ccc32)cc(OC)c1C(=O)N1CC(C#N)C1` [compound 192, 1-[2,6-dimethoxy-4-[5-(1-methylpyrazol-4-yl)benzimidazol-1-yl]benzoyl]azetidine-3-carbonitrile], the IC50 is 0.01 to 10 nM against SIK3 [1]; 10 to 100 nM against SIK1 [2]; 0.01 to 10 nM against SIK2 [3]; 10 to 100 nM against SIK3 [4]; 10 to 100 nM on SIK1 [5]; 10 to 100 nM at SIK2 [6]. In addition, the EC50 in test [7] and in test [8] was 100 to 1000 nM in each case.
